target: T1, wild-type HIV-1 protease (Human immunodeficiency virus type 1 group M subtype B, UniProt P04585); assay: Assay for Inhibition of Microbial Expressed HIV Protease (peptide substrate cleavage, LC-MS/MS readout); assay type: biochemical; conditions: E. coli expressed wild-type HIV-1 protease, mean of at least two independent experiments, read-out: HIV Pr Enzyme HIV1 PR IC50
T1 construct: Escherichia coli expressed wild-type HIV-1 protease protein
How it was run: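 Cleavage of Val-Ser-Gln-Asn-(β-naphthyl)Ala-Pro-Ile-Val (400 μM) by recombinant HIV-1 protease ([…]) ran 1 h at 30 °C after a 30 min room-temperature inhibitor preincubation in 50 mM sodium acetate pH 5.5. Product peak areas by LC-MS/MS gave inhibition; values average at least two independent runs.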

Row | Structure (SMILES) | IC50
1 | N=C1N[C@](CCCC(F)(F)F)(c2ccc(F)cc2)C(=O)N1[C@@H]1CCCc2ccc(C(=O)N3Cc4nccnc4C3)cc21 [Compound 116, (5R)-3-[(1R)-7-(5,7-dihydro-6H-pyrrolo[3,4-b]pyrazin-6-ylcarbonyl)-1,2,3,4-tetrahydro-naphthalen-1-yl]-5-(4-fluoro-phenyl)-2-imino-5-(4,4,4-trifluorobutyl)imidazolidin-4-one] | 37.8 nM
2 | N=C1N[C@](CCCC(F)(F)F)(c2ccc(F)cc2)C(=O)N1Cc1ccc(C(F)(F)F)c(C(=O)N2Cc3cnc(-c4ccc(-n5nccn5)cc4)nc3C2)c1 [Compound 117, (5R)-5-(4-fluorophenyl)-2-imino-3-[3-({2-[4-(2H-1,2,3-triazol-2-yl)phenyl]-5,7-dihydro-6H-pyrrolo[3,4-d]pyrimidin-6-yl}carbonyl)-4-(trifluoromethyl)-benzyl]-5-(4,4,4-trifluorobutyl)-imidazolidin-4-one] | 38.5 nM
3 | N=C1N[C@](CCCC(F)(F)F)(c2ccc(F)cc2)C(=O)N1Cc1ccc(C(F)(F)F)c(C(=O)N2CCN(c3ccccc3)CC2)c1 [Compound 119, (5R)-5-(4-fluorophenyl)-2-imino-3-{3-[(4-phenylpiperazin-1-yl)carbonyl]-4-(trifluoromethyl)-benzyl}-5-(4,4,4-trifluorobutyl)-imidazolidin-4-one] | 42.1 nM
4 | N=C1N[C@](CCCC(F)(F)F)(c2ccc(F)cc2)C(=O)N1Cc1ccc(C(F)(F)F)c(C(=O)N2Cc3cnc(-c4cc(F)cc(F)c4)nc3C2)c1 [Compound 121, (5R)-3-[3-{[2-(3,5-difluorophenyl)-5,7-dihydro-6H-pyrrolo[3,4-d]pyrimidin-6-yl]carbonyl}-4-(trifluoromethyl)benzyl]-5-(4-fluorophenyl)-2-imino-5-(4,4,4-trifluorobutyl)imidazolidin-4-one] | 44.3 nM
5 | N=C1N[C@](CCCC(F)(F)F)(c2ccc(F)cc2)C(=O)N1Cc1ccc(C(F)(F)F)c(C(=O)N2CCn3nc(C4CC4)nc3C2)c1 [Compound 122, (5R)-3-{3-[(2-cyclopropyl-5,6-dihydro[1,2,4]triazolo[1,5-a]pyrazin-7(8H)-yl)carbonyl]-4-(trifluoromethyl)benzyl}-5-(4-fluorophenyl)-2-imino-5-(4,4,4-trifluorobutyl)imidazolidin-4-one] | 48.1 nM
6 | CC(C)CC(c1ccc(C(F)(F)F)c(C(=O)N2CCn3c(nnc3C(F)(F)F)C2)c1)N1C(=N)N[C@](C[C@@H]2CCOC2)(c2ccc(F)cc2)C1=O (stereo partly drawn) [Compound 123, (5R)-5-(4-fluorophenyl)-2-imino-3-{3-methyl-1-[4-(trifluoromethyl)-3-{[3-(trifluoromethyl)-5,6-dihydro-[1,2,4]triazolo[4,3-a]pyrazin-7(8H)-yl]carbonyl}phenyl]butyl}-5-[(3R)-tetrahydrofuran-3-ylmethyl]-imidazolidin-4-one] | 55.7 nM
7 | CC(C)CC[C@]1(c2ccccc2)NC(=N)N([C@@H]2CCCc3ccc(C(=O)N4Cc5nccnc5C4)cc32)C1=O [Compound 124, (5R)-3-[(1R)-7-(5,7-dihydro-6H-pyrrolo[3,4-b]pyrazin-6-ylcarbonyl)-1,2,3,4-tetrahydro-naphthalen-1-yl]-2-imino-5-(3-methylbutyl)-5-phenylimidazolidin-4-one] | 57 nM
8 | N=C1NC(CCC2CC2)(c2ccc(C(F)(F)F)cc2)C(=O)N1Cc1ccc(C(F)(F)F)c(C(=O)N2CCn3c(nnc3C(F)(F)F)C2)c1 (stereo not shown) [Compound 125, 5-(2-cyclopropylethyl)-2-imino-5-[4-(trifluoromethyl)phenyl]-3-[4-(trifluoromethyl)-3-{[3-(trifluoromethyl)-5,6-dihydro-[1,2,4]triazolo[4,3-a]pyrazin-7(8H)-yl]carbonyl}benzyl] imidazolidin-4-one] | 57.2 nM
9 | CC(C)CC[C@]1(c2ccccc2)NC(=N)N(Cc2ccc(S(C)(=O)=O)c(C(=O)N3Cc4nccnc4C3)c2)C1=O [Compound 126, (5R)-3-[3-(5,7-dihydro-6H-pyrrolo[3,4-b]pyrazin-6-ylcarbonyl)-4-(methylsulfonyl)-benzyl]-2-imino-5-(3-methylbutyl)-5-phenylimidazolidin-4-one] | 60.2 nM
10 | N=C1N[C@](CCCC(F)(F)F)(c2ccc(F)cc2)C(=O)N1Cc1ccc(C(F)(F)F)c(C(=O)N2CCN(CC(F)(F)F)CC2)c1 [Compound 127, (5R)-5-(4-fluorophenyl)-2-imino-5-(4,4,4-trifluorobutyl)-3-[3-{[4-(2,2,2-trifluoroethyl)piperazin-1-yl]carbonyl}-4-(trifluoromethyl)-benzyl]imidazolidin-4-one] | 65.1 nM
11 | N=C1N[C@](C[C@@H]2CCOC2)(c2ccccc2)C(=O)N1Cc1ccc(C(F)(F)F)c(C(=O)N2Cc3nccnc3C2)c1 [Compound 128, (5R)-3-[3-(5,7-dihydro-6H-pyrrolo[3,4-b]pyrazin-6-ylcarbonyl)-4-(trifluoromethyl)-benzyl]-2-imino-5-phenyl-5-[(3R)-tetrahydrofuran-3-ylmethyl]-imidazolidin-4-one] | 67.9 nM
12 | N=C1N[C@](CCC2CC2)(c2ccc(F)cc2)C(=O)N1[C@@H]1CCCc2ccc(C(=O)N3Cc4nccnc4C3)cc21 [Compound 129, (5R)-5-(2-cyclopropylethyl)-3-[(1R)-7-(5,7-dihydro-6H-pyrrolo[3,4-b]pyrazin-6-ylcarbonyl)-1,2,3,4-tetrahydronaphthalen-1-yl]-5-(4-fluorophenyl)-2-iminoimidazolidin-4-one] | 70.8 nM
13 | N=C1NC(CCC2CC2)(c2ccc(C(F)(F)F)cc2)C(=O)N1Cc1ccc(C(F)(F)F)c(C(=O)N2CCn3c(nnc3C(F)(F)F)C2)c1 (stereo not shown) [Compound 131, 5-(2-cyclopropylethyl)-2-imino-5-[4-(trifluoromethyl)phenyl]-3-[4-(trifluoromethyl)-3-{[3-(trifluoromethyl)-5,6-dihydro-[1,2,4]triazolo[4,3-a]pyrazin-7(8H)-yl]carbonyl}benzyl] imidazolidin-4-one] | 84.9 nM
14 | N=C1N[C@](CCCC(F)(F)F)(c2ccc(F)cc2)C(=O)N1Cc1ccc(C(F)(F)F)c(C(=O)N2CCN3c4ccccc4CC3C2)c1 (stereo partly drawn) [Compound 132, (5R)-5-(4-fluorophenyl)-2-imino-3-[3-(3,4,10,10a-tetrahydropyrazino-[1,2-a]indol-2(1H)-ylcarbonyl)-4-(trifluoromethyl)benzyl]-5-(4,4,4-trifluorobutyl)imidazolidin-4-one] | 86.6 nM
15 | N=C1N[C@](CCCC(F)(F)F)(c2ccc(F)cc2)C(=O)N1Cc1ccc(C(F)(F)F)c(C(=O)N2Cc3cnc(-c4cnn(-c5cccc(Cl)c5)c4)nc3C2)c1 [Compound 133, (5R)-3-[3-({2-[1-(3-chlorophenyl)-1H-pyrazol-4-yl]-5,7-dihydro-6H-pyrrolo[3,4-d]pyrimidin-6-yl}carbonyl)-4-(trifluoromethyl)-benzyl]-5-(4-fluorophenyl)-2-imino-5-(4,4,4-trifluorobutyl)imidazolidin-4-one] | 86.8 nM
16 | N#Cc1ncc2c(n1)CN(C(=O)c1cc(CN3C(=N)NC(c4ccc(F)cc4)(c4ccc(F)cc4)C3=O)ccc1C(F)(F)F)C2 [Compound 134, 6-{[5-{[4,4-bis(4-fluorophenyl)-2-imino-5-oxoimidazolidin-1-yl]methyl}-2-(trifluoromethyl)-phenyl]carbonyl}-6,7-dihydro-5H-pyrrolo[3,4-d] pyrimidine-2-carbonitrile] | 1.08 nM
17 | COC(=O)Nc1ncc2c(n1)CN(C(=O)c1cc([C@@H](C)N3C(=N)N[C@](CCC(C)C)(c4ccccc4)C3=O)ccc1C(F)(F)F)C2 [Compound 135, methyl (6-{[5-{(1R)-1-[(4R)-2-imino-4-(3-methylbutyl)-5-oxo-4-phenylimidazolidin-1-yl]ethyl}-2-(trifluoromethyl)phenyl]carbonyl}-6,7-dihydro-5H-pyrrolo[3,4-d]pyrimidin-2-yl)carbamate] | 1.28 nM
18 | N#Cc1ncc2c(n1)CN(C(=O)c1cc(CN3C(=N)NC(c4ccccc4)(c4ccccc4)C3=O)ccc1C(F)(F)F)C2 [Compound 136, 6-({5-[(2-imino-5-oxo-4,4-diphenylimidazolidin-1-yl)methyl]-2-(trifluoromethyl)phenyl}-carbonyl)-6,7-dihydro-5H-pyrrolo[3,4-d]pyrimidine-2-carbonitrile] | 1.81 nM
19 | COC(=O)Nc1ncc2c(n1)CN(C(=O)c1cc(CN3C(=N)NC(CCC(C)C)(c4ccccc4)C3=O)ccc1C(F)(F)F)C2 (stereo not shown) [Compound 137, methyl (6-{[5-{[2-imino-4-(3-methylbutyl)-5-oxo-4-phenylimidazolidin-1-yl]methyl}-2-(trifluoromethyl)phenyl]carbonyl}-6,7-dihydro-5H-pyrrolo[3,4-d]pyrimidin-2-yl)carbamate] | 1.88 nM
20 | N=C1NC(c2ccc(F)cc2)(c2ccc(F)cc2)C(=O)N1Cc1ccc(C(F)(F)F)c(C(=O)N2Cc3cncnc3C2)c1 [Compound 138, 3-[3-(5,7-dihydro-6H-pyrrolo[3,4-d]pyrimidin-6-ylcarbonyl)-4-(trifluoromethyl)benzyl]-5,5-bis(4-fluorophenyl)-2-iminoimidazolidin-4-one] | 2.78 nM
21 | N=C1NC(c2ccc(F)cc2)(c2ccc(F)cc2)C(=O)N1Cc1ccc(C(F)(F)F)c(C(=O)N2Cc3nccnc3C2)c1 [Compound 139, 3-[3-(5,7-dihydro-6H-pyrrolo[3,4-b]pyrazin-6-ylcarbonyl)-4-(trifluoromethyl)benzyl]-5,5-bis(4-fluorophenyl)-2-iminoimidazolidin-4-one] | 2.93 nM
22 | CC(C)CC1(c2ccccc2)NC(=N)N(Cc2ccc(C(F)(F)F)c(C(=O)N3Cc4cnc(C#N)nc4C3)c2)C1=O (stereo not shown) [Compound 140, 6-{[5-{[2-imino-4-(2-methylpropyl)-5-oxo-4-phenylimidazolidin-1-yl]methyl}-2-(trifluoromethyl)phenyl]carbonyl}-6,7-dihydro-5H-pyrrolo[3,4-d]pyrimidine-2-carbonitrile] | 2.93 nM
